# Test results as given in US4387105A, “Methods of treating atherosclerosis with dialkylureas and dialkylthioureas” (priority 1982, dated 1983).
# Target: T1, fatty acyl CoA:cholesterol acyl transferase (ACAT) (Rattus norvegicus, UniProt O70536)
# T1 construct: The supernatant, containing the microsomal fraction, served as the source of the cholesterol-esterifying enzyme; from tissue; host or cells: rat adrenals (1000 x g supernatant containing the microsomal fraction)
# T1 sequence (O70536 1-545): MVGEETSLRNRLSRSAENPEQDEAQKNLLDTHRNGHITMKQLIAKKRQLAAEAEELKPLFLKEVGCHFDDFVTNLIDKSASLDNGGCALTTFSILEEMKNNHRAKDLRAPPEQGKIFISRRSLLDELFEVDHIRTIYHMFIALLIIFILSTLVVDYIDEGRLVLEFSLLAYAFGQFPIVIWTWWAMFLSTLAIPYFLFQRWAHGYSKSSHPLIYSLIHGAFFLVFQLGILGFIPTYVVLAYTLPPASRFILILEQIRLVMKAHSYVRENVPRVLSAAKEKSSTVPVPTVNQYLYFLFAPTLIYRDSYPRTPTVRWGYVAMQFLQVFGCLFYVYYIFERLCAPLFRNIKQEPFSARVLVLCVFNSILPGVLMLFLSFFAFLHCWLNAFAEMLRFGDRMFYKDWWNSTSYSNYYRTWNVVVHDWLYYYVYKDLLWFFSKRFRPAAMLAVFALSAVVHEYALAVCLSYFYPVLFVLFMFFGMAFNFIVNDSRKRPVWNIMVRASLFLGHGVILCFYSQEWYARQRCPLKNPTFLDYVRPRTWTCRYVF
# Assay: Inhibition of ACAT in rat adrenal microsomal supernatant (14C-oleoyl CoA, cholesteryl ester counted)
# Type: biochemical
# Parameters: dose or concentration left out as unconfirmed
# Settings: vs control without compound
# Protocol: The compounds of the present invention were assayed for two types of biological activity related to their potential use as antiatherosclerotic agents. Compounds were tested in vitro for the ability to inhibit the enzyme fatty acyl CoA:cholesterol acyl transferase (ACAT) and in vivo for serum hypolipidemic activity as measured by their ability to inhibit lipid absorption in rats. The compounds were tested for their ability to inhibit ACAT according to the following procedure:
# Rat adrenals were homogenized in 0.2 M monobasic potassium phosphate buffer, pH 7.4, and centrifuged at 1000 times gravity for 15 minutes at 5° C. The supernatant, containing the microsomal fraction, served as the source of the cholesterol-esterifying enzyme, fatty acyl CoA:cholesterol acyl transferase (ACAT). A mixture comprising 50 parts of adrenal supernatant, 10 parts of albumin (BSA) (50 mg./ml.), 3 parts of test compound (final concentration […].) and 500 parts of buffer was preincubated at 37° C. for 10 minutes. After treatment with 20 parts of oleoyl CoA(^14 C-[…]) the mixture was incubated at 37° C. for 10 minutes. A control mixture, omitting the test compound, was prepared and treated in the same manner. The lipids from the incubation mixture were extracted into an organic solvent and separated by thin-layer chromatography. The cholesteryl ester fraction was counted in a scintillation counter. This procedure is a modification of that described by Hashimoto, et al., Life Scie., 12 (Part II), 1-12 (1973).
row,% Inhibition [%],Molecule
1,85.1,"1,1-di-(n-butyl)-3-(2,3-dibenzophenyl)urea"
2,83.1,"CCCCN(CCCC)C(=O)Nc1ccc(I)cc1 [1,1-di-(n-butyl)-3-(4-iodophenyl)urea, 1,1-Di-(n-butyl)-3-(4-iodophenyl)urea]"
3,94.5,"CCCCN(CCCC)C(=O)Nc1ccc(C)c(NC(=O)N(CCCC)CCCC)c1 [1,1-di-(n-butyl)-3-[(3,3-dibutyl)urea-4-methylphenyl]urea]"
4,75.3,"CCCCN(CCCC)C(=O)Nc1cc(Cl)ccc1C [1,1-di-(n-butyl)-3-(5-chloro-2-methylphenyl)urea]"
5,88.0,"CCCCN(CCCC)C(=O)Nc1ccc(Cl)cc1C [1,1-di-(n-butyl)-3-(4-chloro-2-methylphenyl)urea]"
6,58.7,"CCCCN(CCCC)C(=O)Nc1ccc(OC)cc1 [1,1-di-(n-butyl)-3-(4-methoxyphenyl)urea, 1,1-Di-(n-butyl)-3-(4-methoxyphenyl)urea]"
7,94.3,"Cc1ccc(NC(=O)N(C2CCCCC2)C2CCCCC2)c(C)c1 [1,1-dicyclohexyl-3-(2,4-dimethylphenyl)urea]"
8,55.9,"CCCCN(CCCC)C(=O)Nc1ccc(F)cc1 [1,1-di-(n-butyl)-3-(4-fluorophenyl)urea, 1,1-Di-(n-butyl)-3-(4-fluorophenyl)urea]"
9,93.5,"CCCCc1ccc(NC(=O)N(CCCC)CCCC)cc1 [1,1-di-(n-butyl)-3-(4-n-butylphenyl)urea, 1,1-Di-(n-butyl)-3-(4-n-butylphenyl)urea]"
10,86.0,"CCCCN(CCCC)C(=O)Nc1cccc(Br)c1 [1,1-di-(n-butyl)-3-(3-bromophenyl)urea, 1,1-Di(n-butyl)-3-(3-bromophenyl)urea]"
11,79.9,"CCCCN(CCCC)C(=O)Nc1ccc(C)cc1 [1,1-di-(n-butyl)-3-(4-methylphenyl)urea, 1,1-Di-(n-butyl)-3-(4-methylphenyl)urea]"
12,77.1,"CCCCN(CCCC)C(=O)Nc1cccc(OC)c1 [1,1-di-(n-butyl)-3-(3-methoxyphenyl)urea]"
13,71.0,"CCCCN(CCCC)C(=O)Nc1ccccc1Cl [1,1-di-(n-butyl)-3-(2-chlorophenyl)urea, 1,1-Di-(n-butyl)-3-(2-chlorophenyl)urea]"
14,55.1,"CCCCN(CCCC)C(=O)Nc1ccc(C(C)=O)cc1 [1,1-di-(n-butyl)-3-(4-acetylphenyl)urea, 1,1-Di-(n-butyl)-3-(4-acetylphenyl)urea]"
15,78.4,"CCCCN(CCCC)C(=O)Nc1cccc(C)c1 [1,1-di-(n-butyl)-3-(3-methylphenyl)urea, 1,1-Di-(n-butyl)-3-(3-methylphenyl)urea]"
16,50.9,"CCCCN(CCCC)C(=O)Nc1cccc(C(C)=O)c1 [1,1-di-(n-butyl)-3-(3-acetylphenyl)urea, 1,1-Di-(n-butyl)-3-(3-acetylphenyl)urea]"
17,94.7,"Cc1ccc(NC(=O)N(CC(C)C)CC(C)C)cc1NC(=O)N(CC(C)C)CC(C)C [1,1-di-(isobutyl)-3-[(3,3-diisobutyl)urea-4-methylphenyl]urea]"

# Further lines, the molecule ahead of its results:
row,Molecule,% Inhibition [%]
1,"CCCCN(CCCC)C(=O)Nc1ccc(C)c(C)c1 [1,1-Di-(n-butyl)-3-(3,4-dimethylphenyl)urea]",49.2
2,"CCCCN(CCCC)C(=O)Nc1cccc(SC)c1 [1,1-Di-(n-butyl)-3-(3-methylthiophenyl)urea]",84.7
3,"CCCCN(CCCC)C(=O)Nc1cc(Cl)cc(Cl)c1 [1,1-Di-(n-butyl)-3-(3,5-dichlorophenyl)urea]",79.3
4,"CCCCN(CCCC)C(=O)Nc1cccc(C)c1C [1,1-Di-(n-butyl)-3-(2,3-dimethylphenyl)urea]",87.6
5,"CCC(C)N(C(=O)Nc1ccc(C)cc1C)C(C)CC (centres unmarked) [1,1-Di-(sec-butyl)-3-(2,4-dimethylphenyl)urea]",78.1
6,"CCCCN(CCCC)C(=O)Nc1ccc(Cl)c(C(F)(F)F)c1 [1,1-Di-(n-butyl)-3-(4-chloro-3-trifluoromethylphenyl)urea]",87.3
7,"CCCCN(CCCC)C(=O)Nc1ccc(C(C)C)cc1 [1,1-Di-(n-butyl)-3-(4-isopropylphenyl)urea]",76.4
8,"CCCCN(CCCC)C(=O)Nc1cccc(Cl)c1Cl [1,1-Di-(n-butyl)-3-(2,3-dichlorophenyl)urea]",71.8
9,"CCCCN(CCCC)C(=O)Nc1cccc(Cl)c1 [1,1-di-(n-butyl)-3-(3-chlorophenyl)urea, 1,1-Di-(n-butyl)-3-(3-chlorophenyl)urea]",88.3
10,"Cc1ccc(C)c(NC(=O)N(CC(C)C)CC(C)C)c1 [1,1-di-(isobutyl)-3-(2,5-dimethylphenyl)urea]",74.3
11,"CCCCN(CCCC)C(=O)Nc1cc(C)cc(C)c1 [1,1-Di-(n-butyl)-3-(3,5-dimethylphenyl)urea]",83.5
12,"CCCCN(CCCC)C(=O)Nc1cc(C)ccc1C [1,1-Di-(n-butyl)-3-(2,5-dimethylphenyl)urea]",96.1
13,"CC(C)CN(CC(C)C)C(=O)Nc1ccccc1Cl [1,1-di-(isobutyl)-3-(2-chlorophenyl)urea]",35.4
14,"Cc1ccc(NC(=O)N(C2CCCC2)C2CCCC2)c(C)c1 [1,1-Di-(cyclopentyl)-3-(2,4-dimethylphenyl)urea]",90.4
15,"Cc1cccc(C)c1NC(=O)N(CC(C)C)CC(C)C [1,1-di-(isobutyl)-3-(2,6-dimethylphenyl)urea]",41.2
16,"CCCCN(CCCC)C(=O)Nc1ccc(OCC)cc1 [1,1-di-(n-butyl)-3-(4-ethoxyphenyl)urea, 1,1-Di-(n-butyl)-3-(4-ethoxyphenyl)urea]",78.6
17,"CCCCN(CCCC)C(=O)Nc1ccc(C)c(Cl)c1 [1,1-Di-(n-butyl)-3-(3-chloro-4-methylphenyl)urea]",91.2
18,"CCCCCCCN(CCCCCCC)C(=O)Nc1ccc(C)cc1C [1,1-Di-(n-heptyl)-3-(2,4-dimethylphenyl)urea]",91.1
19,"Cc1ccc(NC(=O)N(CCCCC2CCCCC2)CCCCC2CCCCC2)c(C)c1 [1,1-Di-(4-cyclohexyl-n-butyl)-3-(2,4-dimethylphenyl)urea]",86.3
20,"CCCCN(CCCC)C(=O)Nc1ccc([N+](=O)[O-])cc1Cl [1,1-Di-(n-butyl)-3-(2-chloro-4-nitrophenyl)urea]",86.7
21,"CCCCN(CCCC)C(=O)Nc1ccc(Cl)cc1Cl [1,1-Di-(n-butyl)-3-(2,4-dichlorophenyl)urea]",70.0
22,"CCCCN(CCCC)C(=O)Nc1cc(Cl)cc(Cl)c1Cl [1,1-Di-(n-butyl)-3-(2,3,5-trichlorophenyl)urea]",61.6
23,"CCCCC(CC)CN(CC(CC)CCCC)C(=O)Nc1ccc(C)cc1C (centres unmarked) [1,1-di-(2-ethylhexyl)-3-(2,4-dimethylphenyl)urea]",86.2
24,"CCCCCCCCCCCCN(CCCCCCCCCCCC)C(=O)Nc1ccc(C)cc1C [1,1-Di-(n-dodecyl)-3-(2,4-dimethylphenyl)urea]",26.3
25,"CCCCN(CCCC)C(=O)Nc1c(C)cc(C)cc1C [1,1-Di-(n-butyl)-3-(2,4,6-trimethylphenyl)urea]",73.4
26,"CCCCCCCCCCCN(CCCCCCCCCCC)C(=O)Nc1ccc(C)cc1C [1,1-Di-(n-undecyl)-3-(2,4-dimethylphenyl)urea]",48.9
27,"CCCCN(CCCC)C(=O)Nc1c(C)cccc1C [1,1-Di-(n-butyl)-3-(2,6-dimethylphenyl)urea]",85.3
28,"CCCCN(CCCC)C(=O)Nc1cccc(C(F)(F)F)c1 [1,1-Di-(n-butyl)-3-(3-trifluoromethylphenyl)urea]",75.0
29,"CCCCN(CCCC)C(=O)Nc1ccc(F)c(Cl)c1 [1,1-Di-(n-butyl)-3-(3-chloro-4-fluorophenyl)urea]",90.9
30,"CCCCCCCCCN(CCCCCCCCC)C(=O)Nc1ccc(C)cc1C [1,1-Di-(n-nonyl)-3-(2,4-dimethylphenyl)urea]",90.0

# Tested on: cholesterol absorption
# Assay: not given
# Settings: po, 0.03 % of diet, 336 h
row,Molecule,Result (inhibition of cholesterol absorption: lowering of either serum cholesterol or liver cholesterol relative to control rats)
1,"CCCCN(CCCC)C(=O)Nc1cc(Cl)cc(Cl)c1 [1,1-Di-(n-butyl)-3-(3,5-dichlorophenyl)urea]",Active
2,"CCCCN(CCCC)C(=O)Nc1cc(C)cc(C)c1 [1,1-Di-(n-butyl)-3-(3,5-dimethylphenyl)urea]",Active
3,"CCCCc1ccc(NC(=O)N(CCCC)CCCC)cc1 [1,1-di-(n-butyl)-3-(4-n-butylphenyl)urea, 1,1-Di-(n-butyl)-3-(4-n-butylphenyl)urea]",Active
